Experiments:
[1] = biological target: Rac1-GTP (Homo sapiens, UniProt P63000); assay: Rac1-GTP pull-down assay; type: cell-based; conditions: 50 μM M36 (FIG. 7F)
[2] = tested on: RAD51/Geminin foci (HR); assay: RAD51/Geminin foci after gamma-irradiation in TOV112D cells; type: cell-based, human
[3] = tested on: TOV112D cells overexpressing DA Ran; assay: Cell survival of TOV112D cells transfected with Ran WT or dominant active mutant; type: cell-based, human
[4] = tested on: cleaved PARP; assay: Apoptosis by PARP cleavage (Western blot); type: cell-based, human; conditions: 96 hours after treatment
Description: Cells were lysed with RIPA buffer containing protease inhibitors. Whole cell lysates were run through a Bradford assay (Thermo Fisher Scientific) for protein quantification. Around 25-50 μg of proteins were separated onto 12.5% SDS-PAGE and transferred onto nitrocellulose membranes. The resultant blots were probed with Ran (1:10000, sc-271376 Santa Cruz Biotechnology, Dallas, Tex.), cleaved PARP (1:1000, #9541, Cell Signaling Technology Inc., Danvers, Mass.), GAPDH (1:2500, #2118, Cell Signaling Technology Inc.) or beta-actin (1:50000, ab6276, Abcam Inc., Toronto, ON, Canada) primary antibodies overnight at 4° C. then with peroxidase-conjugated secondary antibodies for 2 hours at room temperature. Proteins were detected using enhanced chemiluminescence (Thermo Fisher Scientific).

[5] = biological target: Cdc42 (Homo sapiens, UniProt P60953); assay: Cdc42 activation ELISA in TOV112D cells; type: cell-based; conditions: vs DMSO
Sequence of Cdc42 (P60953 whole entry): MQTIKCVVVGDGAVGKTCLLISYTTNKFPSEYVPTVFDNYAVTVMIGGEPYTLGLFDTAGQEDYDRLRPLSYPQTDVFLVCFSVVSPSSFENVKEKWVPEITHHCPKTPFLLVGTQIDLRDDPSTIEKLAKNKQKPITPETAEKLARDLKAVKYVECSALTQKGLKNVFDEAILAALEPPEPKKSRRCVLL

[6] = tested on: γH2AX foci; assay: γH2AX foci immunostaining in TOV112D cells; type: cell-based, human
[7] = Tolerance test in NRG mice; type: in vivo; conditions: daily i.p. 75 mg/kg for 15 days
Description: For the tolerance test, M36 and QR20 compounds were dissolved in DMSO 10%, Kolliphor® EL 10%, PEG-400 20% and PBS 60% and injected intraperitoneally into 6-week-old female Nod Rag Gamma (NRG) mice (The Jackson laboratory, Bar Harbor, Me.) daily at 75 mg/kg. During this study, mice (n=3) were monitored for survival and weight loss/gain.

[8] = tested on: other aneuploid EOC cells; assay: IncuCyte cell proliferation assay, other aneuploid EOC cell lines; type: cell-based, human; conditions: 40 μM
Description: (§1) The human EOC cell lines used (TOV81D, TOV112D, OV90, TOV21G, OV866(2), TOV1369(R), OV1369(R2), TOV1946, OV1946, TOV2295(R), OV4485) were derived in our laboratory from patients' tumors (TOV) or ascites (OV). All EOC cell lines were maintained in a low oxygen condition of 7% O2 and 5% CO2 and grown in OSE medium (Wisent, Montreal, QC) supplemented with 10% FBS (Wisent), 0.5 μg/mL amphotericin B (Wisent) and 50 μg/mL gentamicin (Life Technologies Inc., Burlington, ON). The human retinal epithelial cell line ARPE-19 was purchased from American Type Culture Collection (ATCC, Manassas, Va.) and maintained in DMEM-F12 (Wisent) supplemented with 10% FBS (Wisent), 0.5 μg/mL amphotericin B (Wisent) and 50 μg/mL gentamicin (Life Technologies Inc.).
Cells (2,000 cells/well) were plated in a 96-well plate. The next day, compounds were added at the indicated concentrations. Following treatment, cell confluence was imaged by phase contrast using the IncuCyte live cell monitoring system (Essen BioScience, Ann Arbor, Mich.). Frames were captured at 2-hour intervals using a 10× objective. For Ran knock down experiments, cells were seeded in a 96-well plate (4,000 cells/well) directly after transfection. Cell confluence monitoring started the next day as described above.
(§2) Small molecules inhibitors of Ran were dissolved in 100% dimethyl sulfoxide (DMSO) and then further diluted in complete culture media for in vitro experiments. Drugs were added 24 hours after seeding.

[9] = tested on: 53BP1; assay: 53BP1 immunofluorescence after gamma-irradiation in TOV112D cells; type: cell-based, human
[10] = biological target: RhoA (Homo sapiens, UniProt P61586); assay: RhoA activation ELISA in TOV112D cells; type: cell-based; conditions: vs DMSO
Sequence of RhoA (P61586 whole entry): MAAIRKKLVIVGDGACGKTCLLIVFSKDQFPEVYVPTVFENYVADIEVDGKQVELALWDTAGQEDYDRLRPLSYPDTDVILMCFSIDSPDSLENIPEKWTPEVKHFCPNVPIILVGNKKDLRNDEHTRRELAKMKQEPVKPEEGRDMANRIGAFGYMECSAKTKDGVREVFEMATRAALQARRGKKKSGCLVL

[11] = tested on: prostate cancer cell lines (LNCaP, 22RV1, PC3, DU145); assay: Cell proliferation, prostate cancer cell lines; type: cell-based
[12] = biological target: T1, recombinant human Ran protein (Homo sapiens, UniProt P62826); assay: Surface Plasmon Resonance (SPR) binding to immobilized Ran; conditions: different compound concentrations, reached saturation
T1 construct: Recombinant Ran protein was purchased from Sigma-Aldrich Inc. (R3152)
Description: SPR experiments were carried out using the Biacore 3000 system. Recombinant Ran protein was purchased from Sigma-Aldrich Inc. (R3152). The running buffer contained PBS, pH7.4, 1 mM GDP, 2 mM MgCl2 and 0.2% DMSO. The regeneration buffer contained 10 mM glycine (pH 2.5). Ran-GDP protein was immobilized onto a CM5 chip; samples of compounds in running buffer were injected at 30 μL/min for 10 minutes contact time followed by 5 minutes regeneration. Kd was calculated using the GraphPad Prism 5 software.

[13] = tested on: ARPE-19 cells; assay: Clonogenic survival assay, ARPE-19; type: cell-based, human
Description: as §1
(§3) Clonogenic assays were performed as previously described. Colonies were counted under a stereo microscope and reported as percent of control. IC50 values were determined using Graph Pad Prism 5 software (GraphPad Software Inc., San Diego, Calif.). Each experiment was performed in duplicate and repeated three times. Sensitivity of the cell lines to small molecules inhibitors of Ran was assessed using a concentration range of 0-50 μM.
as §2

[14] = biological target: T2, Ran-GTP (Homo sapiens, UniProt P62826); assay: Ran-GTP immunofluorescence in TOV112D cells; type: cell-based; conditions: TOV112D cells vs DMSO-treated
Description: M36 and R28-treated and control TOV112D cells grown on coverslips were washed with 1×PBS, fixed in 4% paraformaldehyde and permeabilized with 0.25% Triton X-100 (Sigma-Aldrich Inc.). After blocking (4% BSA and 4% FBS in PBS), coverslips were incubated with the monoclonal anti-RanGTP antibody (26915, NewEastBioscences) diluted 1:100 in blocking buffer for 2 hours at room temperature. Subsequently, samples were incubated with Cy-5 secondary antibody (1:500, Life Technologies Inc.) for 1 hour and coverslips were mounted onto slides using Prolong® Gold anti-fade reagent with DAPI (Life Technologies Inc.). Samples were visualized under a Zeiss microscope (Zeiss observer Z1) with a 20× objective.

[15] = Pharmacokinetics in CD1 mice; type: in vivo
Description: For the pharmacokinetic studies, 6-week-old female CD1 mice (Charles River laboratories, Senneville, QC, Canada) received a single intravenous or intraperitoneal injection of M36 or QR20 (50 mg/kg), dissolved in DMSO 10%, Kolliphor® EL 10%, PEG-400 20% and PBS 60% (QR20 was also dissolved in DMSO 10%, PBS 90%). For each time point (15 minutes, 30 minutes, […], 1 hour, 2 hours and 6 hours), 3 mice were sacrificed and blood was collected by cardiac puncture. Thereafter, the plasma level of each compound was measured by mass spectrometry.

[16] = tested on: TOV112D cells; assay: Clonogenic survival assay, TOV112D; type: cell-based, human
Description: as §1, §3, §2

[17] = biological target: T2, Ran-GTP; assay: Ran activation (Ran-GTP pull-down) assay in TOV112D cells; type: cell-based; conditions: 1 hour treatment, vs DMSO
Description: Cells were seeded onto 6-well tissue culture plates in such a way that cell confluence reaches approximately 70% the day of experiment. The day of experiment cells were treated for 1 hour with the indicated compounds prior to protein extraction and quantification. Assays were performed using the Ran activation assay kit (Cell Biolabs). Briefly, 400 μg of lysates were incubated for one hour at 4° C. with agarose beads conjugated to RANBP1, which specifically binds Ran-GTP. Beads were pelleted, washed, and re-suspended in SDS-PAGE buffer, followed by immunoblotting with an anti-Ran antibody.

Compound: NC(=S)[C@@H]1O[C@H](COCc2ccc(F)cc2)[C@@H](OCc2ccc(F)cc2)[C@H]1OCc1ccc(F)cc1 [M36]
- Rac1-GTP levels (pull-down) [1]: no decreased levels of Rac1-GTP
- HR pathway (RAD51/Geminin foci) [2]: inhibiting the HR and NHEJ pathways
- inhibition of cell proliferation with DA Ran overexpression [3]: attenuated when DA Ran was overexpressed
- apoptosis (cleaved PARP on Western blot) [4]: induced cell apoptosis
- activation of Cdc42 (Cdc42-GTP levels) [5]: does not inhibit the activation
- DNA damage (γH2AX foci) ([6]; 48 hours or 72 hours treatment): increases DNA damage
- DNA double-strand breaks repair (γH2AX foci clearance) ([6]; after gamma-irradiation): delays DNA double-strand breaks repair
- tolerance [7]: well tolerated
- weight loss [7]: no weight loss
- cell proliferation of other aneuploid EOC cells [8]: inhibited cell proliferation
- NHEJ pathway (53BP1 foci) ([9]; after gamma-irradiation): inhibiting the HR and NHEJ pathways
- nuclear localization of 53BP1 ([9]; cytoplasmic staining): interferes with the nuclear localization of 53BP1
- activation of RhoA (RhoA-GTP levels) [10]: does not inhibit the activation
- effect on prostate cancer cell lines [11]: also effective in prostate cancer cell lines
- binding to the immobilized Ran protein [12]: concentration-dependent binding
- effect on normal ARPE-19 cell line in detailed clonogenic assay ([13]; different concentrations): almost no effect
- colony formation of ARPE-19 cells ([13]; single dose 10 μM): without affecting the ARPE-19 cells
- Ran-GTP levels by immunofluorescence [14]: no detectable levels of Ran-GTP
- pharmacokinetics profile based on AUC values ([15]; 50 mg/kg): good pharmacokinetics profiles
- absorption after intraperitoneal vs intravenous injection (plasma levels) ([15]; 50 mg/kg single injection): less absorbed than compound QR20
- persistence in the circulation ([15]; 50 mg/kg single injection): persists longer in the circulation
- IC50 ([16]; Homo sapiens, TOV112D, read-out: IC50 value for the TOV112D cell line by clonogenic assay): 10 ± 0.36 µM
- colony formation of TOV112D cells ([16]; single dose 10 μM): inhibited colony formation of TOV112D cells
- active Ran-GTP levels (pull-down) [17]: concentration-dependent decrease in Ran-GTP levels

From patent US20200246365A1, “COMPOUNDS, PHARMACEUTICAL COMPOSITIONS AND USE THEREOF AS INHIBITORS OF RAN GTPASE” (THE ROYAL INSTITUTION FOR THE ADVANCEMENT OF LEARNING / …, priority 2017, published 2020)
